In ChEMBL document CHEMBL1128974, “Design, synthesis and X-ray crystallographic studies of [7.3.1] and [8.3.1] macrocyclic FKBP-12 ligands” (Bioorg Med Chem Lett, 1996):

Columns and labels:
[1] = biological target: T1, Peptidyl-prolyl cis-trans isomerase FKBP1A (Homo sapiens, UniProt P62942); test: Compound was evaluated for inhibitory activity against human FKBP-12 rotamase
[2] = biological target: T1, Peptidyl-prolyl cis-trans isomerase FKBP1A; test: Compound was evaluated for inhibitory activity against human FKBP-12 rotamase; no inhibition

T1 sequence (P62942 whole entry): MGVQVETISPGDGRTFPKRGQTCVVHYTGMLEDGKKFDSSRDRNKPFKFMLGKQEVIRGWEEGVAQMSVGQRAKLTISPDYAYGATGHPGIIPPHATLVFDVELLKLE

Row | Compound | Ki [1] | Ki [2]
1 | CCC(C)(C)C(=O)C(=O)N1[C@@H]2CCC[C@H]1C(=O)OCCCOC2=O | 10 µM | –
2 | CCC(C)(C)C(=O)C(=O)N1[C@@H]2CCC[C@H]1C(=O)OCCCCOC2=O | 8.3 µM | –
3 | COc1cc(C(=O)C(=O)N2[C@@H]3CCC[C@H]2C(=O)OCC(COCc2ccccc2)COC3=O)cc(OC)c1OC (stereo not given in full) | 1.2 µM | –
4 | COCC(C)[C@@H]1CC[C@@H](C)[C@](O)(C(=O)C(=O)N2[C@@H]3CCC[C@H]2C(=O)OCC(CO)COC3=O)C1 (stereo not given in full) | > 50 µM | –
5 | CO[C@@H](CC(C)C)[C@@H]1CC[C@@H](C)[C@](O)(C(=O)C(=O)N2[C@@H]3CCC[C@H]2C(=O)OCC(CO)COC3=O)C1 (stereo not given in full) | – | Not Active

Continued, values first:

Row | Ki [1] | Ki [2] | Compound
6 | 0.28 µM | – | COc1cc(C(=O)C(=O)N2[C@@H]3CCC[C@H]2C(=O)OCCCCOC3=O)cc(OC)c1OC
7 | 8.1 µM | – | CC(C)[C@@H]1CC[C@@H](C)[C@](O)(C(=O)C(=O)N2[C@@H]3CCC[C@H]2C(=O)OCCCOC3=O)C1
8 | – | Not Active | COCC(C)[C@@H]1CC[C@@H](C)[C@](O)(C(=O)C(=O)N2[C@@H]3CCC[C@H]2C(=O)OCC(COCc2ccccc2)COC3=O)C1 (stereo not given in full)
9 | – | Not Active | CO[C@@H](CC(C)C)[C@@H]1CC[C@@H](C)[C@](O)(C(=O)C(=O)N2[C@@H]3CCC[C@H]2C(=O)OCC(COCc2ccccc2)COC3=O)C1 (stereo not given in full)
10 | 1.5 µM | – | COc1cc(C(=O)C(=O)N2[C@@H]3CCC[C@H]2C(=O)OCC(CO[Si](C)(C)C(C)(C)C)COC3=O)cc(OC)c1OC (stereo not given in full)
